In one assay the target is T1, Recombinant human FAP (Homo sapiens, UniProt Q12884).
T1 construct: purchased R&D systems
T1 sequence (Q12884 1-760): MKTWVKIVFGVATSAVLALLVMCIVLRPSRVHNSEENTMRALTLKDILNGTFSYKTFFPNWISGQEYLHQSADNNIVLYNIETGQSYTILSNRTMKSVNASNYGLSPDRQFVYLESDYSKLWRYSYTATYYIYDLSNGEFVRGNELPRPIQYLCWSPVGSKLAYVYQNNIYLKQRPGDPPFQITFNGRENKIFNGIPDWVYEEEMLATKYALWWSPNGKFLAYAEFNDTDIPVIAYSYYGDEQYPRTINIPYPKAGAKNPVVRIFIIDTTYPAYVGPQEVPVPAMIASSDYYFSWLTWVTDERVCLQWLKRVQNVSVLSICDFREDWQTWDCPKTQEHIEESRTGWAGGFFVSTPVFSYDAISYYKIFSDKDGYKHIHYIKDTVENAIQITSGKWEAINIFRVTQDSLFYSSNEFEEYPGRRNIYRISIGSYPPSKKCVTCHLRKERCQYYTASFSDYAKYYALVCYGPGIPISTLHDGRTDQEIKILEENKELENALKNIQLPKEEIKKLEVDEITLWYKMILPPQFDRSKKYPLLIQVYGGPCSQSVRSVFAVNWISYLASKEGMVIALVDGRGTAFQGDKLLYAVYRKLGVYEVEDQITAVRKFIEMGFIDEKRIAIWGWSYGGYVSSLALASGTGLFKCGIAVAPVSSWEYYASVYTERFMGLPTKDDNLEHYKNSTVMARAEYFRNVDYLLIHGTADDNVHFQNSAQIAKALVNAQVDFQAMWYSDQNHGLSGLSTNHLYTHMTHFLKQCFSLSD
Description: FAP inhibition, fluorogenic substrate Z-Gly-Pro-AMC. The class given is biochemical. The note with it: recombinant human FAP, substrate Z-Gly-Pro-AMC. Put shortly:
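Recombinant human FAP, 10 ng per reaction, in 50 mM Tris pH 7.5 with 1 M NaCl and 1 mg/ml BSA at 25° C; substrate Z-Gly-Pro-AMC, ≤0.1% DMSO. AMC fluorescence read at ex 380/em 460 nm; % signal-rate decrease vs no-inhibitor control, 8-point curves fitted to a four-parameter logistic for IC50.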

The target of another assay is T2, recombinant human DPP7 (Homo sapiens, UniProt Q9UHL4).
T2 construct: purchased R&D Systems
The experiment in a line: DPP7 inhibition, fluorogenic substrate Lys-Pro-AMC. The class given is biochemical. The settings on record: recombinant human DPP7. Put shortly:
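Enzyme per reaction: 50 ng DPP9, 20 ng DPP8, 10 ng each DPP7 and PREP. Compounds were serially diluted (8 points, up to 0.5% DMSO) and incubated at 25 °C.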

The structures appear in SMILES notation. Bounds are passed on as bounds.

With `N#C[C@@H]1C[C@H](F)CN1C(=O)CN1CC[C@H](Nc2cccc3ncccc23)C1` [Example 228, (2S,4S)-4-fluoro-1-[2-[(3S)-3-(5-quinolylamino)pyrrolidin-1-yl]acetyl]pyrrolidine-2-carbonitrile], the IC50 at Recombinant human FAP is 1.21 nM; on recombinant human DPP7 it was 387 nM.

With `N#C[C@@H]1C[C@H](F)CN1C(=O)CN1CC[C@H](Nc2cccc3ncc(F)cc23)C1` [Example 255, (2S,4S)-4-fluoro-1-[2-[(3S)-3-[(3-fluoro-5-quinolyl)amino]pyrrolidin-1-yl]acetyl]pyrrolidine-2-carbonitrile], the results for the 50% inhibitory concentration (IC50) on Recombinant human FAP and on recombinant human DPP7 were 1 nM and 1850 nM, respectively.

On to `COc1cnc2cccc(N[C@H]3CCN(CC(=O)N4CCC[C@H]4C#N)C3)c2c1` [Example 233, (2S)-1-[2-[(3S)-3-[(3-methoxy-5-quinolyl)amino]pyrrolidin-1-yl]acetyl]pyrrolidine-2-carbonitrile], for which the figures for the IC50 at Recombinant human FAP and on recombinant human DPP7 were 0.7 nM and 1070 nM, respectively.

With `N#Cc1ccc(N[C@H]2CCN(CC(=O)N3CCC[C@H]3C#N)C2)c2cccnc12` [Example 247, 5-[[(3S)-1-[2-oxo-2-[(2S)-2-cyanopyrrolidin-1-yl]ethyl]pyrrolidin-3-yl]amino]quinoline-8-carbonitrile], the IC50 was 1.3 nM on Recombinant human FAP and above 50000 nM on recombinant human DPP7.

Regarding `N#C[C@@H]1C[C@H](F)CN1C(=O)CN1CCC(Nc2ccc(OC(F)(F)F)c3ncccc23)CC1` [Example 347, (2S,4S)-4-fluoro-1-[2-[4-[[8-(trifluoromethoxy)-5-quinolyl]amino]-1-piperidyl]acetyl]pyrrolidine-2-carbonitrile], the IC50 at Recombinant human FAP worked out at 2.2 nM; on recombinant human DPP7, 1010 nM.

As to `Cc1ccc2nccc(OC3CCN(CC(=O)N4C[C@@H](F)C[C@H]4C#N)CC3)c2c1` [Example 410, (2S,4S)-4-fluoro-1-[2-[4-[(6-methyl-4-quinolyl)oxy]-1-piperidyl]acetyl]pyrrolidine-2-carbonitrile], the half-maximal inhibitory concentration (IC50) at Recombinant human FAP was found to be 1.2 nM; at recombinant human DPP7 it was 4730 nM.

Consider `N#C[C@@H]1C[C@H](F)CN1C(=O)CN1CCC(Nc2cccc3cnc(Cl)cc23)CC1` [Example 352, (2S,4S)-1-[2-[4-[(3-chloro-5-isoquinolyl)amino]-1-piperidyl]acetyl]-4-fluoro-pyrrolidine-2-carbonitrile], for which the IC50 came to 2.7 nM at Recombinant human FAP and 2930 nM at recombinant human DPP7.

For `N#C[C@@H]1C[C@H](F)CN1C(=O)CN1CCC(Nc2ccc(C(F)(F)F)c3ncccc23)CC1` [Example 334, (2S,4S)-4-fluoro-1-[2-[4-[[8-(trifluoromethyl)-5-quinolyl]amino]-1-piperidyl]acetyl]pyrrolidine-2-carbonitrile], the IC50 at Recombinant human FAP is 4 nM; on recombinant human DPP7, 404 nM.

Regarding `N#Cc1cnc2cccc(N[C@H]3CCN(CC(=O)N4CCC[C@H]4C#N)C3)c2c1` [Example 232, 5-[[(3S)-1-[2-oxo-2-[(2S)-2-cyanopyrrolidin-1-yl]ethyl]pyrrolidin-3-yl]amino]quinoline-3-carbonitrile], the results for the half-inhibitory concentration (IC50) on Recombinant human FAP and on recombinant human DPP7 were 1.3 nM and 7150 nM, respectively.

For the molecule `N#C[C@@H]1CCCN1C(=O)CN1CC[C@H](Nc2ccc(C(F)(F)F)c3ncccc23)C1` [Example 245, (2S)-1-[2-[(3S)-3-[[8-(trifluoromethyl)-5-quinolyl]amino]pyrrolidin-1-yl]acetyl]pyrrolidine-2-carbonitrile], the IC50 at Recombinant human FAP is 1 nM; on recombinant human DPP7, 3750 nM.

For the molecule `COc1ccc(N[C@H]2CCN(CC(=O)N3C[C@@H](F)C[C@H]3C#N)C2)c2cccnc12` [Example 263, (2S,4S)-4-fluoro-1-[2-[(3S)-3-[(8-methoxy-5-quinolyl)amino]pyrrolidin-1-yl]acetyl]pyrrolidine-2-carbonitrile], the half-maximal inhibitory concentration (IC50) at Recombinant human FAP worked out at 1.1 nM; at recombinant human DPP7 it was 554 nM.

With `N#C[C@@H]1C[C@H](F)CN1C(=O)CN1CC[C@H](Nc2ccc(OC(F)(F)F)c3ncccc23)C1` [Example 266, (2S,4S)-4-fluoro-1-[2-[(3S)-3-[[8-(trifluoromethoxy)-5-quinolyl]amino]pyrrolidin-1-yl]acetyl]pyrrolidine-2-carbonitrile], the results for the IC50 on Recombinant human FAP and at recombinant human DPP7 were 0.8 nM and 1070 nM, respectively.

Turning to `N#C[C@@H]1C[C@H](F)CN1C(=O)CN1CC[C@H](Nc2ccc(OCc3ccccc3)c3ncccc23)C1` [Example 268, (2S,4S)-4-fluoro-1-[2-[(3S)-3-[(8-benzyloxy-5-quinolyl)amino]pyrrolidin-1-yl]acetyl]pyrrolidine-2-carbonitrile], the 50% inhibitory concentration (IC50) at Recombinant human FAP was determined as 1 nM; at recombinant human DPP7 it was 511 nM.

For the molecule `N#C[C@@H]1CCCN1C(=O)CN1CC[C@H](Nc2ccc(F)c3ncccc23)C1` [Example 244, (2S)-1-[2-[(3S)-3-[(8-fluoro-5-quinolyl)amino]pyrrolidin-1-yl]acetyl]pyrrolidine-2-carbonitrile], the 50% inhibitory concentration (IC50) at Recombinant human FAP amounted to 2.2 nM; at recombinant human DPP7, 9140 nM.

As to `COc1cnc2cccc(NC3CCN(CC(=O)N4C[C@@H](F)C[C@H]4C#N)CC3)c2c1` [Example 348, (2S,4S)-4-fluoro-1-[2-[4-[(3-methoxy-5-quinolyl)amino]-1-piperidyl]acetyl]pyrrolidine-2-carbonitrile], the values for the IC50 on Recombinant human FAP and at recombinant human DPP7 were 2.1 nM and 612 nM, respectively.

Turning to `N#C[C@@H]1C[C@H](F)CN1C(=O)CN1CCC(Nc2cccc3ncc(F)cc23)CC1` [Example 349, (2S,4S)-4-fluoro-1-[2-[4-[(3-fluoro-5-quinolyl)amino]-1-piperidyl]acetyl]pyrrolidine-2-carbonitrile], the IC50 at Recombinant human FAP was found to be 1.6 nM; at recombinant human DPP7, 1990 nM.

In the case of `COc1cc2c(NC3CCN(CC(=O)N4C[C@@H](F)C[C@H]4C#N)CC3)cccc2cn1` [Example 355, (2S,4S)-4-fluoro-1-[2-[4-[(3-methoxy-5-isoquinolyl)amino]-1-piperidyl]acetyl]pyrrolidine-2-carbonitrile], the IC50 is 2.7 nM on Recombinant human FAP and 846 nM at recombinant human DPP7.
